Read-outs that look alike come from different tables or passages of the source.
Tests used:
PAK3 = target: T1, PAK3 (Homo sapiens, UniProt O75914); test: Enzyme based PAK3 kinase assay (HTRF / TR-FRET), IC50; type: biochemical; conditions: PAK3 inhibitory compounds; IC50 done in quadruplicate
T1 construct: Recombinant human full length PAK3 enzyme was obtained (Invitrogen); purchased Invitrogen
Description: Recombinant human full length PAK3 enzyme was obtained (Invitrogen), immediately aliquoted and kept in storage buffer as purchased at −80° C. for long term storage. The HTRF® KinEASE™ kit (CisBio) containing 5× stock solution of the enzymatic buffer and 1× detection buffer, STK substrate 2-biotin (S2), a phosphospecific monoclonal Europium-labeled Cryptate antibody, which recognizes a phospholylation epitope of the biotinylated peptide, as donor fluorophore and Stretptavadin-linked XL665 (SA-XL665) representing the acceptor fluorophor were used for TR-FRET assays. The compound library consisted of approximately 125,000 small molecules, including compounds approved by the Food and Drug Administration (FDA), a purified natural products library and commercially available compounds from various vendors. All small molecules generally adhere to Lipinski's rules and have been optimized for maximization of molecular diversity.
An enzyme based kinase assay was carried out using full length recombinant PAK3 kinase. A model biotinylated peptide RRRSLLE (SEQ ID NO:5) was used as the substrate. Detection was done by Homogeneous Time Resolve Fluorescence (HTRF) with an antibody that recognizes the phosphorylation site on the peptide.
TR-FRET assays were carried out as follows. A CRS CataLyst Express robotic arm and a Cybi-well 384 channel simultaneous pipettor were used to carry out the High-Throughput Screen. Kinase reactions were performed in 50 mM HEPES, pH 7.0, 0.02% NaN3, 2 mM MgCl2, 0.01% BSA, 0.1 mM Orthonanadate, 1 mM DTT, 0.001% Tween-20, 0.001% Brij-35 using ProxiPlate-384 Plus white assay plates. […] The kinase reaction was initiated by addition of […] per reaction (25 μM ATP final, at the Km). The reaction was incubated for 30 minutes at room temperature. Reaction was terminated by addition of 10 μl of a premixed solution of EDTA, Europium cryptate-labeled antibody and fluorophore-conjugated streptavadin. After overnight incubation at room temperature, TR-FRET measurements were performed using a PHERAstar HTS microplate reader, and were expressed as ratios of acceptor fluorescence at 665 nm over donor fluorescence at 620 nm.
(§1) Data were analyzed using GraphPad Prism Version 5 (GraphPad Software Inc., La Jolla, Calif., USA). Each compound plate included one column of negative controls, were no enzyme was added, and another column for positive controls when no inhibitor compound was added; these were used to calculate Z′ factors and signal to noise ratios throughout the screen. […] IC50 determinations were done in quadruplicate for each compound using different adding sequences for compound and enzyme-substrate-mix. EC50 determinations were done in triplicate for each compound using different time points. For calculation of IC50 and EC50 concentrations, respectively, mean inhibition dose response curves were fitted to the sigmoidal response equation: Y=Bottom+(Top−Bottom)/(1+10̂((X−LogIC50))) were X is log(compound concentration) and Y is % inhibition, and Bottom and Top are the lower and upper plateau. Km concentrations were determined by non-linear regression curve fitting, using the equation: Y=Vmax*X/(Km+X), where X is the substrate concentration.

HeLa cells = test: Cell-based assay in HeLa cells (AlamarBlue cell viability), EC50; design: species or system human
Description: HeLa cells (ATCC) were maintained in Dulbecco's modified Eagle medium (DMEM) supplemented with 10% fetal bovine serum and 1% Penicillin/Streptomycin. Approximately 200 to 500 cells per well were seeded in a 96 well tissue culture plates. Following 24 h growth in normal DMEM, the individual compounds were warmed up to room temperature and diluted in DMEM to their according concentration and then immediately added to the wells. One column on each assay plate contained DMEM only (“neg. control”) and one column contained untreated HeLa cells as “pos. control”. Cells were treated with the compounds at various cell densities and for treatment periods ranging between 75 hrs and approx. 200 hrs. To control for cell viability, we assayed plates using AlamarBlue° (Invitrogen), which uses a redox reaction to measure metabolically active viable cells. At each time point the culture media was removed and a solution of 10% AlamarBlue reagent and DMEM was added to each well to measure cell viability. Fluorescence was measured after 1-2 hrs incubation at 37 C on a Victor^2 Plate Reader (PerkinElmer).
as §1
Compounds were tested in a cell-based assay (HeLa cells). IC50 and EC50 are expressed in micromolar units.

SGK2 = test: Inhibition of kinase activity by SGK2 inhibitory compounds, single concentration; type: biochemical; conditions: 10 μM compound
Source text: A library of compounds was screened for inhibitors of SGK2 and PAK3 activity by assaying phosphorylation of a generic peptide substrate either directly; or indirectly by inhibiting upstream kinase PDK1 from activating the enzyme in vitro. In both cases, the phosphorylated substrate was detected using a specific anti-phospho peptide antibody that is coupled with Eu^3+ Cryptate and XL665 conjugated with streptavidin. […] All initial hits were re-assayed as a dose response series with eight 3-fold dilutions and resulting final concentrations ranged from 0.9 nM to 20 μM.

[1] = 75 h treatment, read-out: EC50 75 h
[2] = 150 h treatment, read-out: EC50 150 h
[3] = read-out: EC50 100 h, 100 h treatment

T1 sequence (O75914 1-544 isoform O75914-2): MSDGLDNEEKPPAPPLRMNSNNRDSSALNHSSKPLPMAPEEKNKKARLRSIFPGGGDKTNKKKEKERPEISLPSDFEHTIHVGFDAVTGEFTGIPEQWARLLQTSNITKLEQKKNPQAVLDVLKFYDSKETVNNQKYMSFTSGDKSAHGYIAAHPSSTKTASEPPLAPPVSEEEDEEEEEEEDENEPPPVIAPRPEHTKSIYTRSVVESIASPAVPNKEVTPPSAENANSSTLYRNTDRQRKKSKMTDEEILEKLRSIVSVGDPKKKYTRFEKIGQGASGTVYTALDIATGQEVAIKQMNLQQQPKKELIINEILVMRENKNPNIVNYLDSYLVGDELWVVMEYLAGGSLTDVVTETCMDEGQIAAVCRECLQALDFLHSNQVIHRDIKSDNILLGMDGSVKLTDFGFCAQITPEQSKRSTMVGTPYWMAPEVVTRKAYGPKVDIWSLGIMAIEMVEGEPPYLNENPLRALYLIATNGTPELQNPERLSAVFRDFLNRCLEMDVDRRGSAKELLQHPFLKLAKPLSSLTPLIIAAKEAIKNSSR

Structure (SMILES)	% Inhibition at 10 μM (SGK2)	also measured
N#Cc1c(N)nc(SCc2ccccc2)c(C#N)c1-c1ccccc1Cl [LDN-0211958]		IC50 (PAK3): 0.33 µM; EC50 (HeLa cells; [1]): 11.2 µM; EC50 (HeLa cells; [2]): 10.6 µM; EC50 (HeLa cells; [3]): 11.6 µM
Cc1ccc(-c2c(C#N)c(SCC(=O)c3ccc(O)c(O)c3)nc3c2CCCC3)o1 [LDN-0026056]		IC50 (PAK3): 0.69 µM; EC50 (HeLa cells; [1]): 13.9 µM; EC50 (HeLa cells; [2]): 18 µM; EC50 (HeLa cells; [3]): 16.9 µM
Cc1nc(-c2ccccc2)c(-c2ccccc2)[nH]1 [LDN-0091420]		IC50 (PAK3): 10.1 µM; EC50 (HeLa cells; [1]): 38.2 µM; EC50 (HeLa cells; [2]): 42.5 µM; EC50 (HeLa cells; [3]): 40.7 µM
Cc1c2ccccc2nc2c(F)c(NC(C)C)c(F)c(F)c12 [LDN-0071567]	88%	
C=C1c2c(Cl)ccc(O)c2C(=O)C2=C(O)C3(O)C(=O)C(C(N)=O)=C(O)C(N(C)C)C3C(O)C12.O=C(O)c1cc(S(=O)(=O)O)ccc1O (stereo not shown) [LDN-0097423]	76%	
O=C(O)C1C2CC=CC2c2cc(Br)cc3c2N1CC1CC=CC31 (stereo not shown) [LDN-0088050]	67%	
O=c1c(O)cccc2cc(O)c(O)c(O)c12 [LDN-0096727]	94%	
O=c1c(O)c(-c2ccc(O)c(O)c2)oc2cc(O)cc(O)c12 [LDN-0052529]	89%	
Nc1ccc2[nH]c(-c3ccco3)nc2c1 [LDN-0065931]	78%	
CN(C)c1ccc(NC(=O)Nc2cccs2)cc1 [LDN-0058882]	61%	
Nc1ccc2[nH]c(C=Cc3ccc(Cl)cc3)nc2c1 [LDN-0060498]	68%	
CC#CC1=C(CO)C(=O)C2OC2C1=O (stereo not shown) [LDN-0080086]	71%	
Cc1cc(C)c(C#N)c(SCC(=O)c2ccc(O)c(O)c2)n1 [LDN-0211955]		IC50 (PAK3): 3.53 µM; EC50 (HeLa cells; [1]): 17.6 µM; EC50 (HeLa cells; [2]): 23.3 µM; EC50 (HeLa cells; [3]): 34 µM
Cc1ccccc1-c1c(C#N)c(N)nc(SCc2ccccc2)c1C#N [LDN-0211959]		IC50 (PAK3): 0.28 µM; EC50 (HeLa cells; [1]): 11.1 µM; EC50 (HeLa cells; [2]): 10.4 µM; EC50 (HeLa cells; [3]): 12.7 µM
Cc1c2ccccc2nc2c(F)c(NCCO)c(F)c(F)c12 [LDN-0071563]	88%	
Oc1cc(O)c2c(c1)OC(O)(c1ccc(O)c(O)c1)C(O)C2 (stereo not shown) [LDN-0096696]	84%	
CCC(=O)N1CCc2cc(Br)cc(S(=O)(=O)Nc3ccc(Br)cc3)c21 [LDN-0074939]	67%	
Oc1cc(O)c2c(c1)OC(c1cc(O)c(O)c(O)c1)C(O)C2 (stereo not shown) [LDN-0097128]	68%	
Nc1ccc2oc3ccc(N)cc3c(=O)c2c1 [LDN-0063356]	50%	

Now from value to compound, other results behind:

% Inhibition at 10 μM (SGK2)	Structure (SMILES)	also measured
79%	COc1ccc(-c2nc(-c3ccc(Sc4ccccc4)cc3)c(-c3ccccc3)[nH]2)cc1 [LDN-0044878]	IC50 (PAK3): 0.03 µM; EC50 (HeLa cells; [1]): 10.7 µM; EC50 (HeLa cells; [2]): 11.1 µM; EC50 (HeLa cells; [3]): 15.5 µM
95%	Cc1cc(-c2ccco2)c(C#N)c(SCC(=O)c2ccc(O)c(O)c2)n1 [LDN-0041012]	IC50 (PAK3): 0.61 µM; EC50 (HeLa cells; [1]): 4.6 µM; EC50 (HeLa cells; [2]): 3.4 µM; EC50 (HeLa cells; [3]): 4.6 µM
65%	CSc1ccc(-c2nc(-c3ccc(Sc4ccccc4)cc3)c(-c3ccccc3)[nH]2)cc1 [LDN-0044047]	
73%	O=C(CSc1ncnc2c1oc1ccccc12)Nc1ccccc1 [LDN-0107896]	
52%	CN1c2ccccc2Sc2cc(N)ccc21 [LDN-0065927]	
87%	Cc1cc2c3c(c(Br)cc(S(=O)(=O)O)c3n1)C(=O)c1ccccc1-2 [LDN-0042012]	
87%	N#Cc1c(N)nc(SCc2ccccc2)c(C#N)c1-c1ccc(O)cc1 [LDN-0028618]	IC50 (PAK3): 0.3 µM; EC50 (HeLa cells; [1]): 13.3 µM; EC50 (HeLa cells; [2]): 18.1 µM; EC50 (HeLa cells; [3]): 16.6 µM
74%	NS(=O)(=O)c1ccc(CCNC(=O)c2ccc3c(=O)n(Cc4ccco4)c(=S)[nH]c3c2)cc1 [LDN-0036137]	
67%	O=C(NCCCN1CCCCCC1)c1ccc(Cn2c(=S)[nH]c3ccc(Br)cc3c2=O)cc1 [LDN-0036382]	
93%	O=C(OC1Cc2c(O)cc(O)cc2OC1c1ccc(O)c(O)c1)c1cc(O)c(O)c(O)c1 (stereo not shown) [LDN-0096721]	
64%	Oc1ccc(-c2nc(-c3ccc4sc5ccccc5c4c3)c(-c3ccccc3)[nH]2)cc1 [LDN-0044883]	
71%	Nc1ccc2[nH]c(C=Cc3ccccc3)nc2c1 [LDN-0060426]	
76%	O=c1c(O)c(-c2ccc(O)c(O)c2)oc2cc(O)ccc12 [LDN-0058389]	
60%	O=C(Nc1cccc(-c2cscn2)c1)C1CCN(Cc2cccc(-c3ccco3)c2)CC1 [LDN-0117557]	
70%	O=[N+]([O-])c1c(Cl)cc(O)c2c1C1C=CCC1C(c1ccccc1)N2 (stereo not shown) [LDN-0026088]	
95%	N#CC1=C(NC(=O)Cc2ccccc2)c2ccccc2CC12CCCCC2 [LDN-0047862]	
60%	CC1=C(C(=O)OCc2ccc3c(c2)OCO3)C(c2cccc(Oc3ccccc3)c2)NC(=O)N1 (stereo not shown) [LDN-0025562]	
89%	O=c1cc(C2Oc3cc(O)cc(O)c3CC2O)cc2c(C3Oc4cc(O)cc(O)c4CC3O)cc(O)c(O)c2c1O (stereo not shown) [LDN-0096771]	
74%	O=C(Nc1ccc(O)c(-c2nc3ccccc3s2)c1)c1cccc(N2C(=O)CCC2=O)c1 [LDN-0041592]	
67%	CCc1cc(-c2n[nH]cc2-c2ccc(Br)cc2)c(O)cc1O [LDN-0106197]	
92%	O=C(OC1Cc2c(O)cc(O)cc2OC1c1cc(O)c(O)c(O)c1)c1cc(O)c(O)c(O)c1 (stereo not shown) [LDN-0022369]	

From patent US20120208204A1, “Compositions and Methods for Inhibiting Tumor Growth” (The Brigham and Women's Hospital, Inc., priority 2009, published 2012)
